# Experimental data published in US20220047532A1, “AMPA RECEPTOR ANTAGONISTS SPECIFIC FOR CALCIUM PERMEABLE AMPA RECEPTORS AND METHODS OF TREATMENT THEREWITH” (priority 2018, published 2022).
# “Also recorded” adds a separate entry of the source. Where two headings read alike, the source gives them in different places.
# Legend:
# [1] = tested on: MeCP2 S421 phosphorylation; experiment: KA-induced MeCP2 S421 phosphorylation, immunoblot, cortical E18+10DIV cultures; assay type: cell-based, rat; conditions: Ctx
# Procedure: (§1) Nuclei were isolated as previously described (81). […] Blots were incubated with the following primary antibodies: MeCP2 (S421) (1:1000) and total-MeCP2 (1:1000, kind gifts from Dr. Michael Greenberg, Harvard Medical School), phospho-CaMKII (T286) (1:250, Cell Signaling), pan-CaMKII (1:250, Cell Signaling), ([…] (1:5000, Sigma), and lamin A/C (1:1000, Cell Signaling).
# [2] = tested on: MeCP2 S421 phosphorylation; experiment: KA-induced MeCP2 S421 phosphorylation, immunoblot, hippocampal E18+10DIV cultures; assay type: cell-based, rat; conditions: H
# Procedure: as §1
# [3] = tested on: MeCP2 S421 phosphorylation; experiment: In vivo hypoxic seizure (HS)-induced MeCP2 S421 phosphorylation in P10 rats; set-up: species or system rat; conditions: for MeCP2 S421 phosphorylation 3 hrs post-HS: P10 rats, normalized to mean C+V control (100±8%), HS+V 157±11%, 20 mg/kg NBQX, 20 mg/kg IEM-1460, nimodipine 10 mg·kg, i.p.; for Baseline MeCP2 phosphorylation in control rats: control rats without HS
# Procedure: as §1
# CaMKII phosphorylation = experiment: In vivo hypoxic seizure-induced CaMKII phosphorylation; conditions: HS model
# Procedure: as §1
# GluA2-lacking AMPAR = experiment: AMPAR eEPSC currents in CDKL5 R59X mouse model; assay type: cell-based
# CDKL5 R59X mouse = experiment: Behaviour of CDKL5 R59X mice after acute in vivo treatment
# PTZ-induced seizures = conditions: in vivo; cited from earlier work
# [4] = tested on: MeCP2 S421 phosphorylation; experiment: KCl-induced MeCP2 S421 phosphorylation, immunoblot, cortical cultures; assay type: cell-based, rat
# Procedure: as §1
# [5] = tested on: MeCP2 S421 phosphorylation; experiment: KCl-induced MeCP2 S421 phosphorylation, immunoblot, hippocampal cultures; assay type: cell-based, rat
# Procedure: as §1
# [6] = tested on: CaMKII T286 phosphorylation; assay type: cell-based
# Procedure: as §1
# [7] = tested on: E18+10DIV cultured cortical neurons; experiment: Fura-2 ratiometric Ca2+ imaging of KA-induced Ca2+ influx, cortical cultures; assay type: cell-based, rat; conditions: cortex
# Procedure: (§2) Ratiometric Ca^2+ imaging was performed on E17/18+10 DIV hippocampal and cortical cultures, plated at 1×10^5 cells/well in 24 well plates. […] After 10 min bathed in 100 μM D-APV (Tocris), cells were stimulated using fast (<2 min) bath application of 30 μM kainate (KA). […] Changes in Ca^2+ influx were assessed by change in 340/380 nm excitation ratio from baseline in individual somas (using regions of interests) in NisElements software (see Supp. Methods).
# [8] = tested on: E18+10DIV cultured hippocampal neurons; experiment: Fura-2 ratiometric Ca2+ imaging of KA-induced Ca2+ influx, hippocampal cultures; assay type: cell-based, rat; conditions: hippocampus
# Procedure: as §2
# [9] = tested on: hippocampal CA1 AMPAR function, silent synapses, LTP; experiment: Hippocampal slice electrophysiology after P10 hypoxic seizures, post-seizure treatment; assay type: in vivo, rat
# Procedure: FIG. 23 ELS induce altered hippocampal CA1 AMPAR function, silent synapses, and synaptic plasticity. Hippocampal brains slices removed at 48-72 h after P10 hypoxic seizures (HS) cause (A) enhanced AMPAR-mediated sEPSCs, (B) inwardly rectifying AMPAR eEPSCs, and (C) a precocious loss of silent synapses indicated by both decreased failure rates and silent synapse fraction. These changes yield attenuated synaptic plasticity both in early-life and as adults: (D) reduced eEPSC amplitude in post-HS 48-72 hrs from whole-cell LTP pairing protocol; (E,F) decreased potentiation from extracellular LTP recordings.
# tdTom+ cells = experiment: tdTom+ cell labelling after PTZ seizures at P9-11 in FosTRAP mice; assay type: in vivo, mouse; conditions: NBQX 1 hr post PTZ stage 5 seizures; preliminary cohort n=3/group
# Procedure: Seizures will be induced as described above. For the KA model, beginning 1 hour after KA seizure, mice will receive doses of either NBQX (20 mg/kg i.p.), […] IEM 1460 (10 mg/kg i.p.), or saline every 12 hrs×4 doses as per prior protocols with ELS. For the PTZ model, we will follow our prior protocol, and deliver the NBQX (20 mg/kg i.p.), IEM 1460 (10 mg/kg i.p.) or saline at 1 hr post seizure on P9, P10, and […] (FIG. 33). Mice will be euthanized at P15, P30, or P60. Two sets of groups will be prepared (n=12/group): the first for perfusion and subsequent IHC to determine whether treatment decreases the number of tdTom+ cells. Confocal imaging of at least 2 fields/section and 3 sections/mouse in defined areas of hippocampal CA subfields and dentate gyrus (hippocampus: Bregma −1.46 to −2.70 mm (interaural 2.34 mm-1.1 mm) or primary auditory cortex (Bregma −2.18 mm to −3.64 mm (interaural 1.5 mm to 0.16 mm) will be used. MAP2, Iba-1, GFAP, and GAD67 will be used to confirm cell identity. Cell counts will be performed using ImageJ software and group differences analyzed by 2-way ANOVA/Bonferroni correction. Multivariate linear and logistic regression will be used to evaluate effects of age, gender, treatment groups and seizure severity in ELS. […]
# [10] = tested on: primary auditory cortex (AI) silent synapses; experiment: PTZ-ELS auditory cortex critical period plasticity; assay type: in vivo; conditions: PTZ P9-11; 1 dose following seizure induction each day
# [11] = tested on: hypoxic seizure (HS) model; conditions: post-seizure in vivo treatment; previously shown (6, 12); cited from earlier work
# [12] = KA-induced, 5 μM KN93, KN92 5 μM, EGTA 1 mM
# [13] = KA 100 μM, in the presence of APV, NBQX, NASPM 150 μM, nimodipine 5 μM
# [14] = KA 100 μM, 100 μM D-APV alone, vs. KA, NaOH+DMSO treated controls
# [15] = KA+APV plus NBQX 50 μM or NASPM 150 μM, vs. KA+APV condition (100±3%)
smiles,measurement,setting,value
O=C(O)CN(CCOCCOCCN(CC(=O)O)CC(=O)O)CC(=O)O [EGTA],MeCP2 S421 phosphorylation,[1]; [12],72±7%
same,MeCP2 S421 phosphorylation,[2]; [12],66±7%
COc1ccc(S(=O)(=O)N(CCO)c2ccccc2CN(C)C/C=C/c2ccc(Cl)cc2)cc1 [KN93],MeCP2 S421 phosphorylation,[1]; [12],10±3%
same,MeCP2 S421 phosphorylation,[2]; [12],3±1%
Br.C[N+](C)(C)CCCCCNCC12CC3CC(CC(C3)C1)C2.[Br-] [IEM-1460],Activity-dependent MeCP2 phosphorylation in cultured neurons in vitro,"[1]; p<0.0049, stimulus and concentration not stated",reduced
same,Activity-dependent MeCP2 phosphorylation in cultured neurons in vitro,"[2]; p<0.0361, stimulus and concentration not stated",reduced
same,MeCP2 S421 phosphorylation 3 hrs post-HS,[3],106±11%
same,Baseline MeCP2 phosphorylation in control rats,[3],did not affect
same,Seizure-induced CaMKII phosphorylation in vivo,CaMKII phosphorylation,prevented
same,Enhanced AMPAR currents,GluA2-lacking AMPAR,decreased; also recorded: attenuated
same,Seizure behavior latency,CDKL5 R59X mouse,rescued
same,Autistic like impairment in social behavior / social deficits,CDKL5 R59X mouse; acute in vivo treatment,rescued; also recorded: improves
same,Spatial and temporal working memory in Y maze (% spontaneous alternating behavior),CDKL5 R59X mouse; acute in vivo treatment,rescued; also recorded: improves
same,Effect in PTZ-induced seizures,PTZ-induced seizures,anti-seizure effects
"NCCCNCCCCNCCCNC(=O)Cc1cccc2ccccc12 [NASPM, 1-Napthylacetyl Spermine]",MeCP2 S421 phosphorylation,[1]; [13],12±2%
same,MeCP2 S421 phosphorylation,[2]; [13],30±9%
same,KCl-mediated MeCP2 phosphorylation,"[4]; Ctx, in the presence of D-APV",32±13%
same,KCl-mediated MeCP2 phosphorylation,"[5]; H, in the presence of D-APV",11±6%
same,KA-induced CaMKII phosphorylation,"[6]; Ctx, in the presence of D-APV",25±5%
same,KA-induced CaMKII phosphorylation,"[6]; H, in the presence of D-APV",28±7%
COc1ccc(S(=O)(=O)Nc2ccccc2CN(C)C/C=C/c2ccc(Cl)cc2)cc1 [KN92],MeCP2 S421 phosphorylation,[1]; [12],99±3%
same,MeCP2 S421 phosphorylation,[2]; [12],97±3%
N[C@H](CCCP(=O)(O)O)C(=O)O [D-APV],"KA-induced Ca2+ influx, normalized mean peak ratio","[7]; KA 30 μM, D-APV 100 μM, normalized to KA only (100±2%)",74±3%
same,"KA-induced Ca2+ influx, normalized mean peak ratio","[8]; KA 30 μM, D-APV 100 μM, normalized to KA only (100±3%)",73±3%
same,MeCP2 S421 phosphorylation,[1]; [14],76±13%
same,MeCP2 S421 phosphorylation,[2]; [14],89±13%
same,KCl-mediated MeCP2 phosphorylation,"[4]; cortical neurons, 10 DIV, D-APV alone",87±21%
same,KCl-mediated MeCP2 phosphorylation,"[5]; hippocampal neurons, 10 DIV, D-APV alone",73±21%
same,KA-induced CaMKII phosphorylation,"[6]; Ctx, pre-treatment with D-APV alone",81±11%
same,KA-induced CaMKII phosphorylation,"[6]; H, pre-treatment with D-APV alone",86±9%
CC(=O)OCOC(=O)CN(CCOCCOCCN(CC(=O)OCOC(C)=O)CC(=O)OCOC(C)=O)CC(=O)OCOC(C)=O [EGTA-AM],Phosphorylation of MeCP2 S421,"[1]; 100 μM EGTA-AM, p=0.0001",reduced
same,Phosphorylation of MeCP2 S421,"[2]; 100 μM EGTA-AM, p=0.0057",reduced
NS(=O)(=O)c1cccc2c1c([N+](=O)[O-])cc1nc(O)c(O)nc12 [NBQX],Remaining NMDAR-insensitive Ca2+ influx,[7]; [15],3±2%
same,Remaining NMDAR-insensitive Ca2+ influx,[8]; [15],31±2%
same,MeCP2 S421 phosphorylation,[1]; [13],0±0.3%
same,MeCP2 S421 phosphorylation,[2]; [13],3±5%
same,KCl-mediated MeCP2 phosphorylation,"[4]; Ctx, in the presence of D-APV",35±5%
same,KCl-induced phosphorylation of MeCP2 S421,"[4]; cortex, NBQX alone, p=0.0069",reversed
same,KCl-mediated MeCP2 phosphorylation,"[5]; H, in the presence of D-APV",21±6%
same,KCl-induced phosphorylation of MeCP2 S421,"[5]; hippocampus, NBQX alone, p=0.0003",reversed
same,KA-induced CaMKII phosphorylation,"[6]; Ctx, in the presence of D-APV",18±4%
same,KA-induced CaMKII phosphorylation,"[6]; H, in the presence of D-APV",21±3%
same,MeCP2 S421 phosphorylation 3 hrs post-HS,[3],81±8%
same,Baseline MeCP2 phosphorylation in control rats,[3],did not affect
same,Seizure-induced CaMKII phosphorylation in vivo,CaMKII phosphorylation,prevented
same,Impaired LTP,[9]; 48-72 hr post HS and as P60 adults,protects
same,Enhanced AMPAR function following ELS,[9]; post-seizure treatment,attenuates
same,Premature silent synapse loss,[9]; post-seizure treatment,reverses
same,Number of tdTom+ cells,tdTom+ cells,decrease; also recorded: reduction
same,Subsequent A1 plasticity,[10],permits
same,Synapse unsilencing,[10],prevents
same,"Later-life seizures, altered synaptic plasticity, and autistic-like social deficits",[11],prevents
COCCOC(=O)C1=C(C)NC(C)=C(C(=O)OC(C)C)C1c1cccc([N+](=O)[O-])c1 (centres unmarked) [nimodipine],MeCP2 S421 phosphorylation,[1]; [13],4±1%
same,MeCP2 S421 phosphorylation,[2]; [13],21±6%
same,KCl-mediated MeCP2 phosphorylation,"[4]; Ctx, in the presence of D-APV",10±6%
same,KCl-mediated MeCP2 phosphorylation,"[5]; H, in the presence of D-APV",0±1%
same,KA-induced CaMKII phosphorylation,"[6]; Ctx, in the presence of D-APV",23±9%
same,KA-induced CaMKII phosphorylation,"[6]; H, in the presence of D-APV",33±6%
same,MeCP2 S421 phosphorylation 3 hrs post-HS,[3],103±9%
